The values below come from US20250011316A1, “PEROXIREDOXIN 3 INHIBITORS AND METHODS OF USE FOR TREATING CANCER” (Wake Forest University Health Sciences, priority 2022, published 2025).

The MIC is the lowest concentration found to suppress growth. A high value points to a need for much substance. By EC50 is commonly meant the concentration that produces a half-maximal response. A high value points to weaker potency. What is called solubility is how much of the substance goes into solution per volume.

Values after ≈ are worked out from the molar mass of the structure shown. Structures can show the parent of a compound that is named as a salt.

The target in one data set is T1, PRX3 (Homo sapiens, UniProt P30048).
T1 construct: endogenous in cells; host or cells: H-MESO malignant mesothelioma cells
T1 sequence (P30048 62-256): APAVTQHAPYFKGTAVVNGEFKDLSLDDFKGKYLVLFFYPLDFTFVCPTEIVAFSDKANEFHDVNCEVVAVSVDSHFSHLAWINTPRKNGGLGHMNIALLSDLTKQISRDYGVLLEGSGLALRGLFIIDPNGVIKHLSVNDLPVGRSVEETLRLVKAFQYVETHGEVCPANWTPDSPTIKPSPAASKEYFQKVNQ
The data set is described as follows: Crosslinking study: PRX3 western blot of H-MESO cell lysates. It counts as cell-based. Particulars: H-MESO cells treated 24 hours; TS at 2.5 or 5 μM; reducing SDS-PAGE, PRX3 western blot (FIG. 3). As for the experimental part:
Malignant Mesothelioma (MM) cells (H-MESO cell line) were plated into 6-well plates in complete tissue culture media. Cells were allowed to adhere for 24 hours before being treated with indicated concentrations of thiostrepton (TS), (1) or (5) (DMSO Stocks) for 24 hours. Cell lysates were generated using standard RIPA buffer, protein concentrations were determined using a Bradford Assay and 20 μg of total protein per sample were separated by reducing SDS-Polyacrylamide Gel Electrophoresis. Proteins were transferred to a PVDF membrane, blocked with 5% Bovine Serum Albumin (BSA) for 1 hour and incubated with PRX3 primary antibody overnight at 4° C. in IX Tris Buffered Saline with Tween (TBST). Membranes were washed 3X with IX TBST and incubated with horseradish peroxidase conjugated (HRP) secondary antibody for 1 hour at room temperature. Membranes were washed 3x in IX TBST and HRP signal was developed using Enhanced Chemiluminescence and visualized on a GE digital imager.
A general note: A western blot detects proteins with antibodies after separation by electrophoresis.

In another data set the test system is HMESO mesothelioma cells. Nature of the data set: Cell viability study (crystal violet, 48 h). Particulars: Homo sapiens, 48 h incubation, read-out: IC50 (Concentration of drug required to kill 50% of cells). It counts as cell-based. As for the experimental part: Cell Lines were plated in 96-well plates (Corning, Kennebunk, ME, USA) at a density of 2500 cells per well. The following day, cells were treated with test compounds diluted in complete media followed by incubation for 48 h. Post-incubation cells were washed with PBS (Corning Cellgro, Manassas, VA, USA), fixed with 3.0% formaldehyde (Fisher BioReagents, Fair Lawn, NJ, USA) in PBS, and stained for 30 min with 0.1% crystal violet (Acros Organics, Fair Lawn, NJ, USA) in water. Crystal violet stain was removed, and plates were washed with FEO and allowed to dry. To quantify cell viability, plates were imaged using the Lionheart Plate reader (BioTek Instruments, Winooski, VT, USA) and/or analyzed by absorbance at 540 nm (crystal violet dye dissolved in 100% methanol) using the Synergy HTX plate reader (BioTek Instruments, Winooski, VT, USA). To determine the effective cytotoxic concentration (ICso) of test compounds, the data were plotted using a 4-parameter non-linear regression model using GraphPad Prism7 software (GraphPad Software, San Diego, CA, USA).
Cell viability assay data in HMESO mesothelioma cells treated with compounds (1)—HCl or (5) HCl are summarized in the below Table 2. ICso (Concentration of drug required to kill 50% f cells) is shown in […] concentration

Data set [1] can be described thus: Behaviour of compounds in DMSO and complete tissue culture media (HMESO cell viability assay, FIG. 1). It counts as physicochemical. Particulars: from DMSO solution. As for the experimental part:
FIG. 1: Cell viability assay data in Malignant Mesothelioma (MM) cells (HMESO cell line) treated with compound (1)—HCl or (5)—HCl N=2 technical and 2 biological replicates conducted by 2 different lab technicians. All compounds went into solution in 100% DMSO. (5)—HCl precipitated at concentrations of ˜20-80 μM when added to complete tissue culture media.

Another data set deals with T2, purified human PRX3 (Homo sapiens, UniProt P30048).
T2 construct: made in house
T2 sequence (P30048 62-256): T1 sequence (P30048 62-256)
Nature of the data set: Biochemical PRX3 Inhibition Assay (non-reducible crosslink by SDS PAGE + single adduct by MALDI-TOF MS). Particulars: 100 μM PRX3 with TRX2/thioredoxin reductase/NADPH system and hydrogen peroxide, 1-2 hr at 37° C. Summed up: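 Purified human PRX3 (100 µM) cycled with TRX2, thioredoxin reductase, NADPH regenerating system and H2O2, incubated with compound 1–2 h at 37 °C. Non-reducible crosslink quantified by densitometry of SDS-PAGE (~46 vs ~23 kDa) after DTT; single-adduct fraction from MALDI-TOF MS peak intensities, background-corrected against DMSO.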

The test system of data set [2] is Enterococcus hirae (ATCC #10541). Nature of the data set: Antimicrobial Activity Assay (MIC / growth inhibition). It counts as cell-based. Particulars: for MIC: ATCC10541, Enterococcus hirae, analogs tested at 20 μM final concentration. The procedure: The overnight growth was then diluted into growth media to make a single solution of E. hirae with a final optical density at 600 nm=0.02 AU. A 20 mM stock solution of Thiostrepton in DMSO was made and used to make multiple dilutions of TS in DMSO. Each TS dilution (0.1 mL) was then added to a test tube containing 10 mL of the diluted E. hirae and grown at 37° C. overnight while shaking at 180 rpm. The next morning, each tube was visually inspected to determine if the cells grew. Final concentrations tested were 0.120, 0.090, 0.075, 0.060, 0.045, 0.030, and 0.015 μM TS. […] Three replicates were made on three separate days (n=9). […] For TS analogs, the dilute E. hirae was treated with 20 μM final concentration of each analog (three replicates each). […] DMSO was used as a positive control (complete cell growth) and 20 μM thiostrepton was used as a negative control.

Data set [3] concerns human SK—OV-3 ovarian cancer cells. Nature of the data set: Cellular Activity Assay (cytotoxicity, crystal violet). It counts as cell-based. Particulars: Homo sapiens; SK—OV-3 cells, treated for 48 hr, 0.1-100 μM, crystal violet absorbance at 540 nm. In short, it runs like this: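 SK-OV-3 cells plated, allowed 24 h recovery, then treated 48 hr with compound at 0.1-100 μM. Live cells were fixed (3.0% formaldehyde), stained with 0.1% crystal violet and read at 540 nm. EC50 was fitted after normalizing to matched-DMSO controls.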

A further data set is described as follows: Solubility Assay (HPLC). It counts as physicochemical. Particulars: HEPES/NaCl buffer, aqueous with cosolvent or surfactant or cyclodextrin, kinetic from dmso stock; 20 mM HEPES, 100 mM NaCl, pH 7.5, 18-24 hours at ambient temperature; read-out: Solubility. In short, it runs like this: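 Compound from 20 mM DMSO stock added to 20 mM HEPES, 100 mM NaCl, pH 7.5, rotated 18-24 h at ambient temperature, then centrifuged 10 min at 20,000×g to remove solids. Supernatant diluted in DMSO and quantified by HPLC peak area against the closest of 200 μM and 20 μM standards, corrected for dilution.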

The mark [4] stands for this setting: E. hirae, overnight at 37° C., MIC determination, n=9.

With `C=C(NC(=O)C(=C)NC(=O)c1csc(-c2ccc(N)cc2)n1)C(N)=O` [(1), N-(3-((3-amino-3-oxoprop-1-en-2-yl)amino)-3-oxoprop-1-en-2-yl)-2-(4-aminophenyl)thiazole-4-carboxamide], the “Covalent PRX3 crosslinking (PRX3-X-PRX3)” value on PRX3 was “No PRX3 —X —PRX3 crosslinking was observed”.
For `C=C(NC(=O)C(=C)NC(=O)c1csc(-c2ccc(N)cc2)n1)C(N)=O` [(1)-HC1, N-(3-((3-amino-3-oxoprop-1-en-2-yl)amino)-3-oxoprop-1-en-2-yl)-2-(4-aminophenyl)thiazole-4-carboxamide hydrochloride], the IC50 with HMESO mesothelioma cells is 748 µM.
`C=C(NC(=O)c1csc(-c2ccc(N)cc2)n1)C(=O)NC(=C)C(=O)OC` [(5), Methyl 2-(2-(2-(4-aminophenyl)thiazole-4-carboxamido)acrylamido)acrylate]: at PRX3, the “Covalent PRX3 crosslinking (PRX3-X-PRX3)” value is “Similar, yet less robust”.
Regarding `C=C(NC(=O)c1csc(-c2ccc(N)cc2)n1)C(=O)NC(=C)C(=O)OC` [(5)—HCl, Methyl 2-(2-(2-(4-aminophenyl)thiazole-4-carboxamido)acrylamido)acrylate hydrochloride], the “concentrations at which compound precipitated when added to complete tissue culture media” value in data set [1] was in the range of 20 to 80 µM. The IC50 with HMESO mesothelioma cells is 1.93 µM.
On to `C=C(NC(=O)c1csc(-c2cccc(COCCOC)c2)n1)C(=O)NC(=C)C(=O)OC` [Compound 27, Methyl 2-(2-(2-(3-((2-methoxyethoxy)methyl)phenyl)thiazole-4-carboxamido)acrylamido)acrylate], for which, on purified human PRX3, the “PRX3 Inhibition (Crosslink + Mono-adduct)” value (from here on “PRX3 Inhibition”) is on record as “+++ (>90%)”. In addition, in data set [2], the MIC is over 20 µM. The compound also had an EC50 in data set [3] of 1 to 10 µM. Moreover, the solubility in the data set “Solubility Assay (HPLC)” is under 100 µM.
The corresponding values for `C=C(NC(=O)c1csc(N2CCCC(C(=O)NCC(C)C)C2)n1)C(=O)NC(=C)C(=O)OC` (centres unmarked) [Compound 28, Methyl 2-(2-(2-(3-(isobutylcarbamoyl)piperidin-1-yl)thiazole-4-carboxamido)acrylamido)acrylate] are “+++ (>90%)”, over 20 µM, 1 to 10 µM and under 100 µM.
Regarding `C=C(NC(=O)c1csc(N2CCC(C(=O)NCCCOC(C)C)CC2)n1)C(=O)NC(=C)C(=O)OC` [Compound 29, Methyl 2-(2-(2-(4-((3-isopropoxypropyl)carbamoyl)piperidin-1-yl)thiazole-4-carboxamido)acrylamido)acrylate], the “PRX3 Inhibition” value at purified human PRX3 is on record as “+++ (>90%)”. In addition, the MIC in data set [2] is over 20 µM. Also, in data set [3], the EC50 was in the range of 1 to 10 µM. Besides, in the data set “Solubility Assay (HPLC)”, the solubility fell in the range of 100 to 1000 µM (≈ 50.8 to 508 µg/mL).
As for `C=C(NC(=O)c1csc(-c2ccc(COC(=O)NCc3ccccc3)cc2)n1)C(=O)NC(=C)C(=O)OC` [Compound 30, Methyl 2-(2-(2-(4-(((benzylcarbamoyl)oxy)methyl)phenyl)thiazole-4-carboxamido)acrylamido)acrylate], the “PRX3 Inhibition” value on purified human PRX3 was “+ (5-50%)”. The compound further had an MIC in data set [2] of over 20 µM. In data set [3], this compound yielded an EC50 of 25 to 100 µM. For the same compound, the solubility in the data set “Solubility Assay (HPLC)” is under 100 µM.
In the case of `C=C(NC(=O)c1csc(N2CCC[C@@H](NC(=O)OCCOC)C2)n1)C(=O)NC(=C)C(=O)OC` [Compound 31, Methyl (R)-2-(2-(2-(3-(((2-methoxyethoxy)carbonyl)amino)piperidin-1-yl)thiazole-4-carboxamido)acrylamido)acrylate], the “PRX3 Inhibition” value on purified human PRX3 was “+ (5-50%)”. Further, in data set [2], the MIC was over 20 µM. Besides, the EC50 in data set [3] is 25 to 100 µM. For the same compound, the solubility in “Solubility Assay (HPLC)” was over 1000 µM.
As to `C=C(NC(=O)c1csc(N2CCC(COC(=O)NCCCOC)CC2)n1)C(=O)NC(=C)C(=O)OC` [Compound 32, Methyl 2-(2-(2-(4-((((3-methoxypropyl)carbamoyl)oxy)methyl)piperidin-1-yl)thiazole-4-carboxamido)acrylamido)acrylate], the “PRX3 Inhibition” value on purified human PRX3 is “++ (50-90%)”. The compound also registered an MIC in data set [2] of over 20 µM. In data set [3], this compound came in with an EC50 of 25 to 100 µM. The solubility in the data set “Solubility Assay (HPLC)” lay in the range of 100 to 1000 µM (≈ 51 to 510 µg/mL).
With `C=C(NC(=O)c1csc(N2CCC(NC(=O)OCCOC)CC2)n1)C(=O)NC(=C)C(=O)OC` [Compound 33, Methyl 2-(2-(2-(4-(((2-methoxyethoxy)carbonyl)amino)piperidin-1-yl)thiazole-4-carboxamido)acrylamido)acrylate], the “PRX3 Inhibition” value at purified human PRX3 is reported as “+++ (>90%)”. The MIC in data set [2] is over 20 µM. Further, the concentration for a half-maximal effect (EC50) in data set [3] was in the range of 25 to 100 µM. In the data set “Solubility Assay (HPLC)”, the solubility is over 1000 µM.
Regarding `C=C(NC(=O)c1csc(N2CCC(NC(=O)COCCOC)CC2)n1)C(=O)NC(=C)C(=O)OC` [Compound 34, Methyl 2-(2-(2-(4-(2-(2-methoxyethoxy)acetamido)piperidin-1-yl)thiazole-4-carboxamido)acrylamido)acrylate], the “PRX3 Inhibition” value at purified human PRX3 is recorded as “+++ (>90%)”. Further, the MIC in data set [2] was over 20 µM. This compound also returned a concentration giving a half-maximal response (EC50) in data set [3] of 1 to 10 µM. Further, the solubility in “Solubility Assay (HPLC)” is over 1000 µM.
As for `C=C(NC(=O)C(=C)NC(=O)c1csc(C2=N[C@@H]3c4csc(n4)[C@H]4NC(=O)c5csc(n5)[C@H]([C@](C)(O)[C@@H](C)O)NC(=O)[C@H]5CSC(=N5)/C(=C/C)NC(=O)[C@H]([C@@H](C)O)NC(=O)c5csc(n5)[C@]3(CC2)NC(=O)[C@H](C)NC(=O)C(=C)NC(=O)[C@H](C)NC(=O)[C@H]([C@@H](C)CC)N[C@@H]2C=Cc3c([C@H](C)O)cc(nc3[C@H]2O)C(=O)O[C@@H]4C)n1)C(N)=O` [TS, Thiostrepton, reference compound], in data set [2] (setting [4]), the “TS concentrations at which complete growth was observed” value is under 0.030 µM and the “TS concentrations at which no growth was observed” value was over 0.045 µM. Moreover, in the data set on HMESO mesothelioma cells, the IC50 is 1.01 µM. Moreover, the “Covalent PRX3 crosslinking (PRX3-X-PRX3)” value on PRX3 was “resulted in covalent PRX3 crosslinking”.
